These are literature values, as cited in patent publication US20180235992A1, “IMMUNOTHERAPIES FOR MALIGNANT, NEURODEGENERATIVE AND DEMYELINATING DISEASES BY THE USE OF TARGETED NANOCARRIERS” (RODOS BIOTARGET GMBH, priority 2015, published 2018).

Data set [1] deals with squamous cell carcinoma head and neck cell lines.
Another data set relates to pancreatic cancer cells. As to conditions: modulating miR-200 and miR-21 expression.
Data set [2] deals with multiple myeloma cell lines.
Data set [3] relates to human vascular endothelial cells. As to conditions: in vitro.
A further data set deals with pancreatic cancer. As to conditions: given intravenously, equal dose.
A further data set has as its system human melanoma cells. As to conditions: Fas Receptor/Caspase-8 pathway independent of p53.
The subject of data set [4] is human acute myelogenous leukemia cell line HL-60.
The next data set concerns human pancreatic cancer. The following applies: mouse, in vivo.
A further data set has as its system pancreatic cancer model. The following applies: in vivo.
Data set [5] has as its system Alzheimer's β-amyloid fibrils. As to conditions: in vitro.
Data set [6] concerns Fibroblast Growth Factor-2-induced angiogenic response. The following applies: in-vivo.

Take `COc1cc(/C=C/C(=O)CC(=O)/C=C/c2ccc(O)c(OC)c2)ccc1O` [curcumin]: the apoptosis result (in [1]; in the data set on human melanoma cells; in data set [4]) was “induces apoptosis” each time. In the data set with pancreatic cancer cells, the gemcitabine sensitivity result was “induces gemcitabine sensitivity”. Further, the “expression of NF-κB, Bcl-2 and Bcl-XL” value in [2] was “suppresses expression”. Besides, the proliferation result in [3] is on record as “suppresses the proliferation”. Moreover, the “tumor weights and volumes” value in the data set on pancreatic cancer is recorded as “failed to cause a significant reduction”. For the same molecule, in the data set with human pancreatic cancer, the “tumor growth and angiogenesis” value is “inhibits tumor growth and angiogenesis”. For the same molecule, the “antitumor activity of gemcitabine” value with pancreatic cancer model is on record as “potentiates the antitumor activity of gemcitabine”. Also, the anti-amyloidogenic effects entry in data set [5] is “potent anti-amyloidogenic effects”. Further, the proliferation and apoptosis entry with mantle cell lymphoma is “suppress proliferation, and induce apoptosis”. In [6], the angiogenic response result is given as “inhibits”.

With [DLys(6)]-LHRH-curcumin, the “tumor weights and volumes” value in the data set with pancreatic cancer is “caused a reduction in tumor weights and volumes”.
